Values of other authors in US20250375365A1, “MOUTH RESCUE RINSE AND METHODS OF REGULATING BLOOD PRESSURE” (University of Florida Research Foundation, Inc., priority 2024, published 2025).

Experiments:
[1] = CHX rinses, healthy subjects; some studies reported

## N=C(NCCCCCCNC(=N)NC(=N)Nc1ccc(Cl)cc1)NC(=N)Nc1ccc(Cl)cc1.O=C(O)[C@H](O)[C@@H](O)[C@H](O)[C@H](O)CO.O=C(O)[C@H](O)[C@@H](O)[C@H](O)[C@H](O)CO [CHX, chlorhexidine gluconate]
[1]
  blood pressure values versus controls: higher blood pressure values
Oral microbiome; one-week CHX course
  reduction of oral microbiome associated with oral nitrate production: significantly impact the reduction of oral microbiome
Oral microbiome; oral antiseptic mouthwash
  bacterial species associated with oral inflammation: effectively reduced bacterial species
